# Entries after “also recorded” stand apart in the source; their conditions may differ.
# Key:
# Type in all cases: in vivo, mouse
# [1] = tested on: MEXF 276 human melanoma tumor explant xenograft; experiment: MEXF 276 human melanoma tumor explant xenograft study, tumor volume and plasma MIA ELISA; settings: for tumor growth inhibition: day 20; for Tumor Volume: day 20, mean ± SE
# Method: (§1) MIA ELISA Assay: Equal numbers of human melanoma and colorectal carcinoma cells (˜250,000 cells for each cell line) were seeded onto tissue culture plates and the culture medium for each cell line was collected 48 hr later. Levels of MIA in culture media or plasma were measured by a commercial single-step ELISA kit according to the manufacturer's protocol (Roche Diagnostics Corporation, Indianapolis, Ind.). MIA concentrations in test samples were calculated using a standard curve ranging from 3-37 ng/ml. When the MIA concentration exceeded the highest standard concentration, the samples were diluted 1:5 and assayed again to have the results fall within the linear range of the standard curve. Data were evaluated using the Student t-test (two-tailed distribution, two-sample unequal variance), using P≦0.05 as the level of significance.
# (§2) An MEXF 276 human melanoma tumor explant xenograft study and an MEXF1341 human melanoma tumor explant xenograft study were carried out as follows. The MEXF 276 human melanoma tumor cells and the MEXF1341 human melanoma tumor explant cells were originally derived from surgical specimens isolated from different melanoma patients (obtained from Oncotest GmbH, Institute for Experimental Oncology, Frieburg, Germany) and propagated as xenografts in nude mice. After removal of tumors from donor mice, samples were cut into fragments (1-2 mm diameter) and placed in RPMI 1640 medium before subcutaneous implantation into recipient male NMRI nu/nu mice (6-8 weeks old). Dosing typically began when tumors reached an average size of 6-8 mm in diameter. Animals were maintained under clean-room conditions in sterile filter-top cages and received sterile rodent chow and water ad libitum.
# In a second experiment, MEXF 276 human melanoma tumor-bearing mice were randomized and dosed orally with CHIR-265 (100 or 10 mg/kg) or sorafenib (100 mg/kg) n=4/group. The first day of dosing was designated as Day 0. As such, the dosing schedule for CHIR-265 was 10 mg/kg on Day 0, 2, 4, 6, 14, 16 and 20. For CHIR-265 the dosing schedule was 100 mg/kg on Day 0, 2, 14, 16 and 20. Finally, the dosing schedule for sorafenib and PEG400 vehicle was 100 mg/kg every day on Day 0-20. […] Plasma samples were collected 4 hr after the last dose on Day 20 and stored at −80° C. prior to MIA analysis. MIA plasma levels were determined by an ELISA assay carried out as described in EXAMPLE 1.
# [2] = tested on: MEXF 1341 human melanoma tumor explant xenograft; experiment: MEXF 1341 human melanoma tumor explant xenograft study, tumor volume and plasma MIA ELISA; settings: for tumor growth inhibition, significance vs. vehicle: MEXF 1341 (text prints MEXF 276), P>0.08 v. vehicle; for tumor growth inhibition, significance vs. vehicle / Tumor Volume: day 20; for Tumor Volume: mean ± SE
# Method: as §1, §2
# In a third experiment, MEXF 1341 human melanoma tumor-bearing mice were randomized and dosed orally with CHIR-265 (100 or 10 mg/kg) or sorafenib (100 mg/kg) n=4/group. The first day of dosing was designated as Day 0. As such, the dosing schedule for CHIR-265 (10 mg/kg) was 10 mg/kg on Day 0, 2, 4, 6, 14, 16 and 20. For CHIR-265 (100 mg/kg) the dosing schedule was 100 mg/kg on Day 0, 2, 14, 16 and 20. Finally, the dosing schedule for sorafenib and PEG400 vehicle was 100 mg/kg every day on Day 0-20. […] Plasma samples were collected 4 hr after the last dose on Day 20 and stored at −80° C. prior to MIA analysis. MIA plasma levels were determined by an ELISA assay carried out as described in EXAMPLE 1.
# [3] = tested on: A375M human melanoma xenograft; experiment: Kinetics of plasma MIA and tumor volume in A375M tumor-bearing mice (Example 3)
# Method: as §1
# (§3) An A375 human melanoma xenograft study was carried out with female athymic nu/nu mice (8-12 weeks old) purchased from Charles River Laboratories (Wilmington, Mass.). Approximately 2.5×10^6 cells were implanted subcutaneously (s.c.) into the hind flank region of mice. Plasma samples were collected when tumors reached an average size of 250 mm^3 (n=10) and stored at −80° C. prior to MIA analysis. Dosing typically began when tumors reached an average size of 250 mm^3. Caliper measurements were performed twice weekly to estimate tumor volume using the formula: (a×b^2)×0.5, where “a” is the largest diameter and “b” is the length perpendicular to the diameter.
# Methods: The kinetics of MIA concentrations in plasma following drug treatment were investigated as follows. A375M tumor-bearing mice were dosed orally either with CHIR-265 (100 mg/kg), CHIR-258 (60 mg/kg) or vehicle (n=10/group). Plasma samples were collected before dosing was initiated, and again on day 3, 8 and 13. Tumor volumes were measured at the same time points, using methods described in EXAMPLE 2.
# [4] = tested on: CHL-1 human melanoma xenograft; experiment: CHL-1 human melanoma xenograft study, tumor volume and plasma MIA ELISA (Example 4)
# Method: as §1
# A CHL-1 human melanoma xenograft study was carried out with female athymic nu/nu mice (8-12 weeks old) purchased from Charles River Laboratories (Wilmington, Mass.). Approximately 5×10^6 tumor cells in Matrigel™ were implanted subcutaneously (s.c.) into the hind flank region of mice. Dosing began when tumors reached an average size of 200 mm^3. Caliper measurements were performed twice weekly to estimate tumor volume using the formula: (a×b^2)×0.5, where “a” is the largest diameter and “b” is the length perpendicular to the diameter. […]
# [5] = tested on: A375M human melanoma xenograft; experiment: A375M human melanoma xenograft study, tumor volume and plasma MIA ELISA (Example 2)
# Method: as §1, §3
# In a first experiment, A375M human melanoma tumor-bearing mice (n=5) were randomized and dosed orally with CHIR-265 at 100 mg/kg (n=5) or vehicle (n=5) once every other day. Tumor-bearing animals treated with PEG400 buffer alone were used as vehicle control. […] Plasma samples were collected 48 hours post the fourth dose (day 10) for MIA analysis by ELISA.
smiles,measurement,setting,value
"CNC(=O)c1cc(Oc2ccc(NC(=O)Nc3ccc(Cl)c(C(F)(F)F)c3)cc2)ccn1 [Sorafenib, reference compound]",tumor growth inhibition,[1]; sorafenib 100 mg/kg every day,69%
same,Tumor Volume,[1]; sorafenib 100 mg/kg oral every day,887±196 mm^3
same,median plasma MIA concentration,"[1]; sorafenib 100 mg/kg, plasma 4 hr after last dose on Day 20",28.9 ng/mL
same,"tumor growth inhibition, significance vs. vehicle",[2],did not cause significant tumor growth inhibition
same,Tumor Volume,"[2]; MEXF 1341, sorafenib 100 mg/kg oral every day",1338±264 mm^3
same,effect on plasma MIA levels,"[2]; MEXF 1341, sorafenib 100 mg/kg, Day 20, P>0.17",reduced plasma MIA levels
"CN1CCN(c2ccc3[nH]c(-c4c(N)c5c(F)cccc5[nH]c4=O)nc3c2)CC1 [CHIR-258, 4-amino-5-fluoro-3-[5-(4-methylpiperazin-1-yl)-1H-benzimidazol-2-yl]quinolin-2(1H)-one]",change in MIA plasma concentration vs. vehicle,"[3]; CHIR-258 60 mg/kg oral, day 3, 60 mg/kg",statistically significant lower levels; also recorded: statistically significant decrease in MIA plasma concentration
same,reduction in MIA levels compared to baseline,"[3]; CHIR-258 60 mg/kg oral, day 13",63%
same,effect on tumor volume / tumor burden vs. vehicle,"[3]; CHIR-258 60 mg/kg oral, from day 8, 60 mg/kg","tumor growth inhibition, however regressions were not observed; also recorded: tumor growth inhibition; also recorded: statistically significant reduction in tumor burden"
same,effect on tumor volume vs. vehicle,"[4]; CHIR-258 30 mg/kg or 80 mg/kg oral once daily, by day 8, P<0.03",significant tumor growth inhibition
same,plasma MIA levels,"[4]; both CHIR-258 groups (30 and 80 mg/kg), day 8 and subsequent time points",not detectable
"Cn1c(Nc2ccc(C(F)(F)F)cc2)nc2cc(Oc3ccnc(-c4ncc(C(F)(F)F)[nH]4)c3)ccc21 [CHIR-265, {1-Methyl-5-[2-(5-trifluoromethyl-1H-imidazol-2-yl)-pyridin-4-yloxy]-1H-benzoimidazol-2-yl}-(4-trifluoromethyl-phenyl)-amine]",MIA plasma concentration (median),"[3]; CHIR-265 100 mg/kg oral, day 3, baseline 27.8",10.4 ng/mL
same,reduction in MIA concentration vs. baseline,"[3]; CHIR-265 100 mg/kg, day 3",62%
same,tumor regression,"[3]; CHIR-265 100 mg/kg, day 3",29%
same,MIA plasma concentration,"[3]; CHIR-265 100 mg/kg, day 13",undetectable
same,Tumor Volume,"[1]; CHIR-265 100 mg/kg oral, 100 mg/kg",19±2.9 mm^3
same,Tumor Volume,"[1]; CHIR-265 (10 mg/ml) per table head, 10 mg/kg in text, oral, 10 mg/kg",58±15.2 mm^3
same,tumor growth inhibition,[1]; CHIR-265 at both doses (100 and 10 mg/kg),> 97%
same,"tumor growth inhibition, significance vs. vehicle",[2],did not cause significant tumor growth inhibition
same,Tumor Volume,"[2]; MEXF 1341, CHIR-265 100 mg/kg oral, 100 mg/kg",575±214 mm^3
same,Tumor Volume,"[2]; MEXF 1341, CHIR-265 (10 mg/ml) per table head, 10 mg/kg in text, oral, 10 mg/kg",1190±291 mm^3
same,reduction in plasma MIA,"[2]; MEXF 1341, both CHIR-265 treatments (100 and 10 mg/kg), Day 20, P<0.02",2 fold
same,tumor regression as compared to initial tumor volume (250 mm^3),"[5]; CHIR-265 100 mg/kg oral every other day, after four doses",~50%
same,tumor growth inhibition compared to vehicle treatment,"[5]; CHIR-265 100 mg/kg oral every other day, day 10",70%
same,Tumor Volume,"[5]; CHIR-265 100 mg/kg oral every other day, day 10, mean ± SE, 100 mg/kg",133±14.1 mm^3
same,vehicle median MIA concentration fold higher than CHIR-265 treated mice,"[5]; CHIR-265 100 mg/kg, day 10, n=5/group",17 fold
same,MIA plasma levels,"[5]; after four doses of CHIR-265 100 mg/kg, plasma 48 h post fourth dose (day 10)",~4 ng/mL

# Reference: patent publication US8288087B2, “Use of melanoma inhibitory activity (MIA) protein as an early indicator for therapeutic response in melanoma” (Novartis AG, priority 2006, dated 2012)
